# Values of other authors as cited in patent publication US8680094B2, “1, 4-benzoxazine compounds and derivatives thereof as therapeutic drugs for the treatment of neurodegenerative conditions” (Board of Regents, The University of Texas System, priority 2008, dated 2014).
# Columns and labels:
# [1] = tested on: 3-NP-induced mouse model of Huntington's disease; settings: earlier work (Chin et al., 2004); cited from earlier work
# [2] = target: GSK3β (Homo sapiens, UniProt P49841); settings: stated for the reference compound, no value; cited from earlier work
# GSK3β, sequence (P49841 whole entry, species assumed): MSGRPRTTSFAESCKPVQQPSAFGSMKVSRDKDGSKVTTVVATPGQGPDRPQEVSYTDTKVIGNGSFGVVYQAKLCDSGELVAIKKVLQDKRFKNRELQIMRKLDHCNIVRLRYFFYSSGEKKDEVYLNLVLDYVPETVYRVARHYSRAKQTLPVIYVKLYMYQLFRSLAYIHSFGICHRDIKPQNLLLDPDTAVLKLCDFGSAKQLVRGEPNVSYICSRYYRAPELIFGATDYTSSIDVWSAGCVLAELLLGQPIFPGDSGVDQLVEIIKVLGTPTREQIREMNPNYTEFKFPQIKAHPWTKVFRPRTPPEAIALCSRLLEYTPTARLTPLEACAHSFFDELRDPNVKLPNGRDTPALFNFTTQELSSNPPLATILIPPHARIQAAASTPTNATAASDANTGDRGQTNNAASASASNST
# [3] = tested on: cultured neurons; settings: Chin et al., 2004, cited from earlier work
structure (smiles),measurement,setting,value
"O=C1Nc2ccc(I)cc2C1=Cc1cc(Br)c(O)c(Br)c1 [GW5074, 5-Iodo-3-[(3′,5′-dibromo-4′-hydroxyphenyl)methylene]-2-indolinone]",behavioral performance in mice administered with 3-nitropropionic acid,[1],improves behavioral performance
same,striatal degeneration in mice administered with 3-nitropropionic acid,[1],prevents striatal degeneration
same,inhibition of GSK3β,[2],inhibits GSK3β weakly
same,death of cultured neurons induced by a variety of different apoptotic stimuli,[3],completely inhibits
same,toxicity to cultured neurons,"[3]; at higher concentrations, Johnson et al., 2005, Chen et al., 2008",display toxicity
